Values joined by “and” are separate entries in the source; they are usually repeats but may differ in a detail not shown here. Equal values may be shown once.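 Dose response: 5 concentrations. Exposure: 48 h. Format: 96-well plates. Endpoint: linear interpolation; highest concentration if not reached. GI50 = concentration required for 50% inhibition of growth. TGI marks complete inhibition of growth.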
Assays:
Assay in all cases: DTP human tumour cell line panel, 48 h
SK-OV-3 ovarian = tested on: SK-OV-3 ovarian
OVCAR-3 ovarian = tested on: OVCAR-3 ovarian
HT29 colon = tested on: HT29 colon
SNB-19 CNS = tested on: SNB-19 CNS
TK-10 renal = tested on: TK-10 renal
SN12C renal = tested on: SN12C renal
RPMI-8226 leukemia = tested on: RPMI-8226 leukemia
HCT-116 colon = tested on: HCT-116 colon
NCI-H226 lung = tested on: NCI-H226 lung
SR leukemia = tested on: SR leukemia

| Compound | TGI (SK-OV-3 ovarian) | TGI (OVCAR-3 ovarian) | TGI (HT29 colon) | TGI (SNB-19 CNS) | TGI (TK-10 renal) | TGI (SN12C renal) | TGI (RPMI-8226 leukemia) | TGI (HCT-116 colon) | TGI (NCI-H226 lung) | GI50 (SK-OV-3 ovarian) | GI50 (SR leukemia) | GI50 (TK-10 renal) | GI50 (SN12C renal) | GI50 (NCI-H226 lung) | GI50 (OVCAR-3 ovarian) | GI50 (HT29 colon) | GI50 (SNB-19 CNS) | GI50 (RPMI-8226 leukemia) | GI50 (HCT-116 colon) |
| --- | --- | --- | --- | --- | --- | --- | --- | --- | --- | --- | --- | --- | --- | --- | --- | --- | --- | --- | --- |
| Cn1cc2ccccc2c1-c1nc(F)nc(Oc2ccc3c(c2)CC[C@@H]2C3CC[C@@]3(C)C2C[C@H](O)[C@@H]3O)n1 (some centres undefined) | 52.2 µM | 78.8 µM | 40.5 µM | 29.5 µM | 54.6 µM | 31.6 µM | 41.9 µM | 28.1 µM |  |  |  |  |  |  |  |  |  |  |  |
| O=C1O/C(=C/c2ccccc2)C(c2ccccc2)=C1O | > 100 µM | 44.1 µM | > 100 µM | > 100 µM | > 100 µM | > 100 µM | 83.3 µM | > 100 µM | > 100 µM |  |  |  |  |  |  |  |  |  |  |
| O=C(/C=C\c1cccc2ccccc12)c1ccc(Cl)cc1Cl | > 100 µM | 43.5 µM | 35.8 µM | 72.9 µM | > 100 µM | > 100 µM | 46.6 µM | 33.6 µM | > 100 µM |  |  |  |  |  |  |  |  |  |  |
| COC1OC2COC(C)(C)OC2C(OC(C)=O)C1NC(=O)N(CCCl)N=O (centres undefined) | > 100 µM | > 100 µM | > 100 µM | > 100 µM | > 100 µM | > 100 µM |  | > 100 µM | > 100 µM |  |  |  |  |  |  |  |  |  |  |
| COC(=O)[C@@]12CC(C(C)C)[C@H]3CC(C(=O)C=C1OC)[C@H]32 (some centres undefined) | > 100 µM | > 100 µM | > 100 µM | > 100 µM | > 100 µM | > 100 µM | > 100 µM | > 100 µM |  |  |  |  |  |  |  |  |  |  |  |
| CC(C)CCCCCCCCCCCCC(=O)NCC(=O)NC1C(O)C(O)C(Nc2ncnc3nc[nH]c23)OC1C(O)CO (centres undefined) | 0.00344 µM and 0.0224 µM | 0.00189 µM and 0.00279 µM and 0.00509 µM | 0.0109 µM and 0.0666 µM and 0.0148 µM | 0.0121 µM and 0.00367 µM and 0.00683 µM |  | 0.0729 µM and 0.0145 µM |  |  |  | 0.005 µM | < 0.01 nM | < 1e-05 µM | 0.00574 µM and 0.005 µM |  |  |  |  |  |  |
| O=C(Nc1ccc(Cl)c(Cl)c1)C(=O)C(C(=O)c1ccccc1-c1ccccc1)C1OC(=O)c2ccccc21 (centres undefined) | 78.3 µM | 31.9 µM | > 100 µM |  | 43.7 µM |  | 63.5 µM | 22.3 µM | 15.1 µM |  |  |  |  |  |  |  |  |  |  |
| CN(/N=C\c1ccnc2ccccc12)c1ccc([N+](=O)[O-])cc1 | > 100 µM | > 100 µM | > 100 µM | > 100 µM | > 100 µM | > 100 µM | 65.4 µM | > 100 µM | > 100 µM |  |  |  |  |  |  |  |  |  |  |
| C=CCC(N[C@H](CO)c1ccccc1)c1cn(Cc2ccccc2Cl)c(=O)n(Cc2ccccc2Cl)c1=O (some centres undefined) | > 100 µM | 43.8 µM | > 100 µM | > 100 µM | > 100 µM | 40.9 µM | 12.5 µM | 20.8 µM | 49.8 µM | 63.8 µM |  | 46.6 µM | 14.6 µM | 13.7 µM | 8.8 µM | 11 µM | 35.7 µM | 3.73 µM | 6.44 µM |
| CC1NC(=O)C2=C1C(=O)NC(=O)C2 (centres undefined) |  | > 100 µM |  |  | > 100 µM | > 100 µM | > 100 µM | > 100 µM | > 100 µM |  |  | > 100 µM | > 100 µM | > 100 µM | > 100 µM |  |  | > 100 µM | > 100 µM |
| Cn1c2c(c3c(Cl)nncc31)Cc1ccccc1-2 | 75.1 µM | > 100 µM | 44.5 µM | 51.1 µM | > 100 µM | 81.7 µM | > 100 µM | > 100 µM | 46.8 µM | 28.6 µM |  | 26.2 µM | 20.8 µM | 15.6 µM | 31 µM | 16.9 µM | 12.9 µM | 18.1 µM | 17.9 µM |
| CC(=O)N1N=C(c2ccc(Nc3nc(Nc4ccc(F)cc4)nc(Nc4ccc(F)cc4)n3)cc2)CC1c1ccc(N(C)C)cc1 (centres undefined) | 53.7 µM | 20.3 µM | 28.9 µM | > 100 µM | 39.2 µM | > 100 µM | 7.57 µM | 14.7 µM | 14.9 µM | 15.5 µM |  | 7.02 µM | 6.3 µM | 3.29 µM | 5.23 µM | 3.79 µM | 16.1 µM | 1.77 µM | 3.6 µM |
| Clc1cccc(-c2nnc(-c3nn(-c4ccccc4)c4nc5ccccc5nc34)o2)c1 | > 100 µM | > 100 µM | > 100 µM | > 100 µM | > 100 µM | > 100 µM | > 100 µM | > 100 µM | > 100 µM |  |  |  |  |  |  |  |  |  |  |
| Cc1cc(=O)n(-c2cc3cccccc-3n2)[nH]1 | 47 µM | 8.23 µM | 35.6 µM | > 100 µM | > 100 µM | 62.3 µM | 67.2 µM | 5.27 µM | 44.4 µM |  |  |  |  |  |  |  |  |  |  |
| CC1=CC(C)(C)NN1C1=NS(=O)(=O)c2ccccc2N1C | > 100 µM | > 100 µM | > 100 µM | > 100 µM | > 100 µM | > 100 µM |  | > 100 µM | > 100 µM |  |  |  |  |  |  |  |  |  |  |
